{"source": "patent US10077236B2", "about": "“Azacyclic constrained analogs of FTY720” (The Regents of the University of California, priority 2013, dated 2018)", "key": {"[1]": {"tested_on": "sphingosine-1-phosphate receptors", "experiment": "S1P receptor activation in CHO cells expressing the receptors", "assay_type": "cell-based", "conditions": "added to CHO cells expressing the receptors", "protocol": "When the pure phosphates are added to these CHO cells, multiple S1P receptors are activated when the phosphates are present at 1-10 uM. There is no enantiomer-selectivity in the activation of S1P receptors."}, "[2]": {"tested_on": "BMp190 cells (murine bone marrow transduced with BCR-Abl p190)", "experiment": "Cell viability assay, BCR-Abl p190-expressing murine bone marrow (BM-p190)", "assay_type": "cell-based", "excerpt": "(§1) Leukemia cell assays: Effects of chemical changes on ability to kill cells as observed in cell viability assays using the BCR-ABL positive human acute lymphoblastic leukemia (ALL) cell line, Sup-B15 are described. Assays using the Sup-B15 cell line were designed to determine efficacy of azacyclic constrained small molecule analogs of FTY720 in killing leukemia cells. Analogs were generated using the synthesis methods mentioned above. Sup-B15 cells were maintained at 2-3 million/mL in RPMI 1640 (by Mediatech™) supplemented with 10% fetal calf serum (by Sigma-Aldrich™), 10 mM Hepes (by Mediatech™), 55 μM β-mercaptoethanol (by Sigma-Aldrich™), 2 mM L-glutamine (by Mediatech™), and antibiotics. BV173, Nalm-6, and Blin-1 were maintained at 1-2 million/mL and CCRF-CEM at less than 500,000/mL in the same medium. BMp190 cells were created by transducing murine bone marrow cells with pMIC-p190 which expresses the p190 isoform of BCR-Abl and human CD4 from an IRES; these cells were kept at 1-2 million/mL in RPMI supplemented as above.\n(§2) Flow cytometry: Much of the biological activity presented is shown through flow cytometry data. […] Here, IC50 flow cytometry assays were used. In them, viability was determined at 72 hours by vital dye exclusion [propium iodide or DAPI (4′,6-diamindino-2-phenylindole)]. To measure nutrient receptor expression following exposure to FTY720 and azacyclic constrained analogs of FTY720, surface 4F2hc expression was measured after 3 hours of drug treatment by staining 150,000 cells with phycoerythrin-conjugated mouse anti-human CD98 (by BD Biosciences™). Analysis was restricted to viable cells.\n(§3) All samples for the disclosed sets of data were analyzed on a BD LSR II flow cytometer and data analyzed with FlowJo™ software (by Treestar™). IC50's were calculated and statistical tests were performed using GraphPad Prism™."}, "[3]": {"experiment": "Distribution of compound 6 and its phosphorylated form in plasma, bone marrow and spleen of mice", "assay_type": "in vivo", "conditions": "normalization to total protein; tissues versus blood", "protocol": "A study was then conducted to examine what happens to compound 6 when administered to animals. Mice were treated with 10 mg/kg doses of compound 6 (i.p.) and then the mice were sacrificed at various time points, then plasma, bone marrow, and spleen tissue were extracted to build curves. […] Indeed, the ratio of phosphorylated to unphosphorylated compound 6 in the spleen and bone marrow is close to 1:1 after i.p. administration."}, "[4]": {"tested_on": "SupB15 model, leukemic burden in the bone marrow", "experiment": "In vivo SupB15 leukemia model", "conditions": "21 days of treatment, 10 mg/kg i.p.", "excerpt": "Since compound 6 worked so well in the leukemia cell line, an examination of its effectiveness in vivo in a SupB15 model was undertaken."}, "sphingosine kinase 2": {"target": "T1, sphingosine kinase 2 (Mus musculus, UniProt Q9JIA7)", "T1 construct": "endogenous in cells", "T1 sequence (Q9JIA7 1-617)": "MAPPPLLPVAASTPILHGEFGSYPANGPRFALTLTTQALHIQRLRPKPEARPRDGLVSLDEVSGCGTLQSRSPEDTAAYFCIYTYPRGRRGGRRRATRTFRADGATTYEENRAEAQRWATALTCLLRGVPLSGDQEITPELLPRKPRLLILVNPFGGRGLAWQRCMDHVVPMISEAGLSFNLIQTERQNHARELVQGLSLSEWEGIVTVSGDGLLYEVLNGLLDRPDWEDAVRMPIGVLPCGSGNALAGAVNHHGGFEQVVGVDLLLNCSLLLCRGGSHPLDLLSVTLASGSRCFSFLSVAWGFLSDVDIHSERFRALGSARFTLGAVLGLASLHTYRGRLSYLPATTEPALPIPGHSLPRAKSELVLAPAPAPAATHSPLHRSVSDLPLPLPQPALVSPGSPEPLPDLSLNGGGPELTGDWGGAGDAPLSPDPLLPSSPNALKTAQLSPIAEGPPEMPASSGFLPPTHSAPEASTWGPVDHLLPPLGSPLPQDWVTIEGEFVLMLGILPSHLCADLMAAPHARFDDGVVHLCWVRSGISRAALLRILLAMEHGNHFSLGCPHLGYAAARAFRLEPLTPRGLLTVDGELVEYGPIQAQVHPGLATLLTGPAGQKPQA", "experiment": "Phosphorylation by sphingosine kinase 2 in cells", "assay_type": "cell-based", "protocol": "(§4) The importance of phosphorylation in the activity of compound 6 was then examined. In this study MEF knockout lines that show the same differential sensitivity to compound 6 relative to its enantiomers as leukemia cells were used (FIG. 10h). […] A phosphate and a non-phosphorylatable analog of compound 6 were then tested."}, "SphK2 null MEFs": {"tested_on": "SphK2 null MEFs", "experiment": "Sensitivity of SphK2 null MEFs", "assay_type": "cell-based", "protocol": "as §4"}, "human colon cancer cells": {"tested_on": "human colon cancer cells", "experiment": "Combination with trametinib in human colon cancer cells", "assay_type": "cell-based"}, "Nalm-6 Ph- ALL cell line": {"tested_on": "Nalm-6 Ph- ALL cell line", "experiment": "Cell viability assay, Nalm-6", "assay_type": "cell-based, human", "conditions": "72 h, vital dye exclusion and flow cytometry; read-out: Mean IC50 (+/- SEM) in cell viability assay, Nalm-6 Ph- ALL", "excerpt": "as §1, §2, §3"}, "BCR-Abl- LAX7R cells": {"tested_on": "BCR-Abl- LAX7R cells", "experiment": "Combination with trametinib in BCR-Abl- LAX7R patient leukemia cells", "assay_type": "cell-based, human", "conditions": "some BCR-Abl negative patient leukemia samples", "excerpt": "FIGS. 10n and 10o provide data results from a study of the effectiveness of treating BCR-Abl+ SFO2 cells (10n), and also in BCR-Abl− LAX7R cells (10o), which is a late-stage leukemia resistant to chemotherapy."}, "[5]": {"tested_on": "BCR-Abl+ leukemias compared to other cell types", "experiment": "Ratio of IC50 of compound 6 (177) and its enantiomer compound 5 (39) across cell types", "assay_type": "cell-based", "excerpt": "Another difference between compound 6 and FTY720 or the enantiomer of compound 6, is that compound 6 has a specific and very high activity to BCR-Abl+ leukemias compared to other cell types. This trend is shown in FIG. 10d by calculating the ratio of 1050 for compound 6 (also called 177) and its enantiomer compound 5 (also called 39). If the drugs are similarly effective a ratio near 1 would be expected, and if compound 6 works better (has a lower 1050), a ratio greater than one as with SupB15s would be expected. […] Finally, it is seen that the Ph+ALL primary patient sample has a ratio greater than 1."}}}
{"compound": "CCCCCCCCc1ccc(CO[C@@H]2CN[C@@H](CO)C2)cc1.Cl", "note": "[Compound 6]", "values": [{"measurement": "activation of sphingosine-1-phosphate receptors", "setting": "[1]", "value": "do not activate sphingosine-1-phosphate receptors"}, {"measurement": "IC50", "setting": "[2]; 72 h, vital dye exclusion and flow cytometry, read-out: Mean IC50 (+/- SEM) in cell viability assay, BM-p190", "value": "0.5 ± 0.1", "unit": "µM"}, {"measurement": "more active than compound 5", "setting": "[2]; murine bone marrow transformed by BCR-ABL p190", "value": 10, "unit": "fold"}, {"measurement": "tissue accumulation", "setting": "[3]", "value": "accumulates in tissues to higher levels than are present in blood"}, {"measurement": "leukemic burden in the bone marrow", "setting": "[4]", "value": "dramatic reduction in the leukemic burden in the bone marrow"}, {"measurement": "phosphorylation by sphingosine kinase 2 in cells", "setting": "sphingosine kinase 2", "value": "more efficient"}, {"measurement": "gain of functional activity", "setting": "SphK2 null MEFs", "value": "no longer shows gain of functional activity"}, {"measurement": "cell killing, combination of trametinib and compound 6", "setting": "human colon cancer cells", "value": "can kill human colon cancer cells"}, {"measurement": "cell killing, single agent", "setting": "human colon cancer cells", "value": "do not die"}, {"measurement": "IC50", "setting": "Nalm-6 Ph- ALL cell line", "value": "13.5 ± 2.4", "unit": "µM"}, {"measurement": "sensitivity, combination with trametinib", "setting": "BCR-Abl- LAX7R cells", "value": "sensitive to this drug combination"}, {"measurement": "sensitivity, single agent", "setting": "BCR-Abl- LAX7R cells", "value": "not sensitive to compound 6 as a single agent"}, {"measurement": "ratio of IC50, compound 6 versus its enantiomer compound 5", "setting": "[5]; 2 Ph+ ALL lines and BM transduced with BCR-ABL p190 fusion", "value": "greater than 1"}, {"measurement": "ratio of IC50, compound 6 versus its enantiomer compound 5", "setting": "[5]; 3 Ph- ALL lines", "value": "~1"}, {"measurement": "sensitivity of non-sensitive line after p190 transduction", "setting": "[5]; CCRF transduced with p190", "value": "becomes sensitized to compound 6"}, {"measurement": "ratio of IC50, compound 6 versus its enantiomer compound 5", "setting": "[5]; Ph+ALL primary patient sample", "value": "greater than 1"}]}
